Experimental data from publication PMC11649115, “In vitro safety evaluation of dopamine D3R antagonist, R-VK4-116, as a potential medication for the treatment of opioid use disorder” (PLOS ONE, 2024).
Where two headings read alike, the source gives them in different places.

Experiments:
human hepatocytes = test: MTT assay, hepatocyte viability; format: cell-based
HepG2 cells = test: Phospholipidosis and steatosis, high content screening; format: cell-based; design: key to Cell count, Trend (↑↓) / Nuclear size, Trend (↑↓) / DNA structure, Trend (↑↓) / Phospholipidosis, Trend (↑↓) / Steatosis, Trend (↑↓): ↑: increasing trend of response; ↓: decreasing trend of response; conditions: for Steatosis, MEC: (NS) = not statistically significant
[1] = as above; format: cell-based; design: key to Cell count, Trend (↑↓) / Nuclear size, Trend (↑↓) / DNA structure, Trend (↑↓) / Phospholipidosis, Trend (↑↓) / Steatosis, Trend (↑↓): ↑: increasing trend of response; ↓: decreasing trend of response; conditions: human, HepG2 cells
CYP1A2 mRNA = test: CYP induction, mRNA, primary cultured human hepatocytes; format: in vitro ADME; conditions: read-out: CYP1A2 mRNA Fold Induction (fold of vehicle control)
Source text: (§1) Rifampicin as a positive control and solvent (0.1% DMSO) vehicle control were also included. The acceptance criteria for CYP induction was ≥ 2-fold induction for significant CYP activity, while the acceptance criteria for CYP mRNA was ≥ 4-fold for significant CYP induction.

CYP1A2 [2] = test: CYP induction, in situ catalytic activity, human hepatocytes; format: in vitro ADME
Source text: as §1

Kir2.1 = molecular target: T1, Kir2.1 (Homo sapiens, UniProt P63252); test: CiPA IonChannelProfiler Cardiac Panel, QPatch; format: cell-based; conditions: mean of two sample results
T1 sequence (P63252 1-427): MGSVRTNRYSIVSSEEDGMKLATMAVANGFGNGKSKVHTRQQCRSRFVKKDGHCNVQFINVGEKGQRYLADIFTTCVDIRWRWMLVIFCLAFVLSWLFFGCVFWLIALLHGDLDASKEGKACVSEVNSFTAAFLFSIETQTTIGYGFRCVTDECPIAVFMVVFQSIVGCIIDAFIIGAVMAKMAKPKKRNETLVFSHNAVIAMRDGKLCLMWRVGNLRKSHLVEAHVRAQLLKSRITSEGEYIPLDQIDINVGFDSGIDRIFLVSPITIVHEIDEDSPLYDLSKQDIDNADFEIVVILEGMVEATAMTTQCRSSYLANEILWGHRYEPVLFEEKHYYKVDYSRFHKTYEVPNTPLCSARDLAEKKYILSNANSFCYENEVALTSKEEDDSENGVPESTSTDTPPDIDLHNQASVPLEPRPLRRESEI

CYP2D6 = CYP2D6 (Homo sapiens, UniProt P10635); test: CYP inhibition in human liver microsomes; conditions: human, human liver microsomes, probe bufuralol
CYP3A4 = CYP3A4 (Homo sapiens, UniProt P08684); test: in vitro; conditions: microsomes
CYP2B6 [3] = molecular target: T2, CYP2B6 (Homo sapiens, UniProt P20813); test: CYP inhibition in human liver microsomes; conditions: human, human liver microsomes, probe bupropion
T2 sequence (P20813 1-491): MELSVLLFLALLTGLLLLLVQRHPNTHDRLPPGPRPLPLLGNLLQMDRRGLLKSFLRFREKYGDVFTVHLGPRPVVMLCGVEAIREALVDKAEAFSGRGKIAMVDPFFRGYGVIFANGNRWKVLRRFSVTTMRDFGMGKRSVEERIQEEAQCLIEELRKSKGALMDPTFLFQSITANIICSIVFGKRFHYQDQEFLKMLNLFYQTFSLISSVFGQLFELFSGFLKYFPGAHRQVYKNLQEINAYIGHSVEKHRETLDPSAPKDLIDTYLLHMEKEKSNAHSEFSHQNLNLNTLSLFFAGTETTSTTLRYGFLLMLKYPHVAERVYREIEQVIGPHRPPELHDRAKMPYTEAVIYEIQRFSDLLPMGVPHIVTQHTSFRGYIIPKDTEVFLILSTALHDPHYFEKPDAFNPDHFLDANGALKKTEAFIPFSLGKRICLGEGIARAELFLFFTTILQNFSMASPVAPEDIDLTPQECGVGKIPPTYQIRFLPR

CYP2C8 = molecular target: T3, CYP2C8 (Homo sapiens, UniProt P10632); test: CYP inhibition in human liver microsomes; conditions: human, human liver microsomes, probe paclitaxel
T3 sequence (P10632 1-490): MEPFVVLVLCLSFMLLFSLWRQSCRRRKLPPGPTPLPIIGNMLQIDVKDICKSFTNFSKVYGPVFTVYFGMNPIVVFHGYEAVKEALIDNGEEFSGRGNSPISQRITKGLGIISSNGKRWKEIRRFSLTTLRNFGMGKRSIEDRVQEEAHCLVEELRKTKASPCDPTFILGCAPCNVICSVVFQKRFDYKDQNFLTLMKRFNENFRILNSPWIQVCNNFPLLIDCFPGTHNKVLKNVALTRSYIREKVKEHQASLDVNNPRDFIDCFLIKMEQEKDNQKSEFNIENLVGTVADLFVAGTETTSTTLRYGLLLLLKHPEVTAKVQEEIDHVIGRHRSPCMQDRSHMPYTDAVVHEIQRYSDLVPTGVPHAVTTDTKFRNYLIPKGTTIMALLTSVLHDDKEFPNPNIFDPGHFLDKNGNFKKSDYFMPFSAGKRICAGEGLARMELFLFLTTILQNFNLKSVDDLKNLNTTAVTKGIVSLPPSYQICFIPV

CYP1A2 [4] = molecular target: T4, CYP1A2 (Homo sapiens, UniProt P05177); test: CYP inhibition in human liver microsomes; conditions: human, human liver microsomes, probe phenacetin
T4 sequence (P05177 1-516): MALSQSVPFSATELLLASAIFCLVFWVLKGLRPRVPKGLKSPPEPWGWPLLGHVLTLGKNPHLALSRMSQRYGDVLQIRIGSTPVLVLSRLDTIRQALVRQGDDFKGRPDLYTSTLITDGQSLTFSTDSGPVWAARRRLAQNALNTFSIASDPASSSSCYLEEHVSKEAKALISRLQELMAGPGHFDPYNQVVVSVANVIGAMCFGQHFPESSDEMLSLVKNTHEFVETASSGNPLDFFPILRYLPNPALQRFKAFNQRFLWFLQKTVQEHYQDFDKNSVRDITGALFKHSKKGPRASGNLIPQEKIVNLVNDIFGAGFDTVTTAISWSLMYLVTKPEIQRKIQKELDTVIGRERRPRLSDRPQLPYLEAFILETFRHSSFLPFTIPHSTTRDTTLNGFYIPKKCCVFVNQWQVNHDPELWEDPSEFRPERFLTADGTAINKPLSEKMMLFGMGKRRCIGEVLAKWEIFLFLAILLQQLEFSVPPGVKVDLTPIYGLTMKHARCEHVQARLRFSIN

CYP2C9 = CYP2C9 (Homo sapiens, UniProt P11712); test: CYP inhibition in human liver microsomes; conditions: human
CYP2C19 = CYP2C19 (Homo sapiens, UniProt P33261); test: CYP inhibition in human liver microsomes; conditions: human, human liver microsomes, probe mephenytoin
CYP2B6 [5] = test: CYP induction, in situ catalytic activity, human hepatocytes
Source text: as §1

CYP2B6 mRNA = test: CYP induction, mRNA, primary cultured human hepatocytes; conditions: Fold Induction (CYP2B6 mRNA expression)
Source text: as §1

CYP2B6 [6] = test: as above; conditions: Fold Induction (CYP2B6 mRNA expression), hepatocyte Lot 399, 1000 µM
Source text: as §1

[7] = # AC50 greater than the maximum surviving concentration, (NS) = not statistically significant, read-out: Steatosis, AC50
[8] = read-out: Phospholipidosis, AC50

Sequence of CYP2C9 (P11712 whole entry): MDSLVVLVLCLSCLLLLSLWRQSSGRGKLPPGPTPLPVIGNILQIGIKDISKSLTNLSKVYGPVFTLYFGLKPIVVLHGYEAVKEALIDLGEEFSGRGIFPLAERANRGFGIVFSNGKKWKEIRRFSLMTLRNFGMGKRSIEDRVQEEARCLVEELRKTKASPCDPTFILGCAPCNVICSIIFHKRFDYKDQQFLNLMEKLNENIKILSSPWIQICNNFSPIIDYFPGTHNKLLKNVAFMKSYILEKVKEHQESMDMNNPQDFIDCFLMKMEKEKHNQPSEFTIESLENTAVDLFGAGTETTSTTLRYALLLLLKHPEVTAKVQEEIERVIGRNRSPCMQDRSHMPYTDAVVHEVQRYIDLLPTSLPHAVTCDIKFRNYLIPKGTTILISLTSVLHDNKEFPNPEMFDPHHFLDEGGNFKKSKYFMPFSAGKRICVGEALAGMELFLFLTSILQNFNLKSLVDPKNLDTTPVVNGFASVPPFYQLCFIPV
Sequence of CYP3A4 (P08684 2-503): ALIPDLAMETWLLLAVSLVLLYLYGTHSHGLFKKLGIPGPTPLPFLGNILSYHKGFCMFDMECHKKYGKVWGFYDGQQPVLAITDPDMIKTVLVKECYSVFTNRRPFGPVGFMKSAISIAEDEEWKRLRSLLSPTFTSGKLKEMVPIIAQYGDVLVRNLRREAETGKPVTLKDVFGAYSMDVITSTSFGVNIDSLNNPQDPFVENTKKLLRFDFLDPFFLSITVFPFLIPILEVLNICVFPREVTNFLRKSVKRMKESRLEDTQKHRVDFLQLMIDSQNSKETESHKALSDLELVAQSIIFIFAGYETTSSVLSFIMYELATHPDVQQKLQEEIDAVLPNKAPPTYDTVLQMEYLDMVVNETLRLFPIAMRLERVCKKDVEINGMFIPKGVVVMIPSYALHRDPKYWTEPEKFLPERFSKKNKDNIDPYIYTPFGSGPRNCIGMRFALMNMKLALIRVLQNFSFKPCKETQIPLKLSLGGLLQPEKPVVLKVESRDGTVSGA
Sequence of CYP2C19 (P33261 whole entry): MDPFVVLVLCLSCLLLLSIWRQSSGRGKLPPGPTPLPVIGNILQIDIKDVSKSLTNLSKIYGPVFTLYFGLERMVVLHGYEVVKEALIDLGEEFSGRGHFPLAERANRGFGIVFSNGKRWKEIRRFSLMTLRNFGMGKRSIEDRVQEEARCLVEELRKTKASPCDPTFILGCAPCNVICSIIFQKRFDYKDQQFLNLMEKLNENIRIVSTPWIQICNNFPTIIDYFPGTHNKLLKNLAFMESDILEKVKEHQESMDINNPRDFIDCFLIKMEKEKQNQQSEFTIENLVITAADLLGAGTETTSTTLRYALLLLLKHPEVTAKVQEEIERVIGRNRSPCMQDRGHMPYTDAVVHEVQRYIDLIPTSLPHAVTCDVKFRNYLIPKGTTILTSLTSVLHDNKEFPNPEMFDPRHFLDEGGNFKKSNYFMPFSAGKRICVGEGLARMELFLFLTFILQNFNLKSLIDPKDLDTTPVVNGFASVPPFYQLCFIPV
Sequence of CYP2D6 (P10635 whole entry): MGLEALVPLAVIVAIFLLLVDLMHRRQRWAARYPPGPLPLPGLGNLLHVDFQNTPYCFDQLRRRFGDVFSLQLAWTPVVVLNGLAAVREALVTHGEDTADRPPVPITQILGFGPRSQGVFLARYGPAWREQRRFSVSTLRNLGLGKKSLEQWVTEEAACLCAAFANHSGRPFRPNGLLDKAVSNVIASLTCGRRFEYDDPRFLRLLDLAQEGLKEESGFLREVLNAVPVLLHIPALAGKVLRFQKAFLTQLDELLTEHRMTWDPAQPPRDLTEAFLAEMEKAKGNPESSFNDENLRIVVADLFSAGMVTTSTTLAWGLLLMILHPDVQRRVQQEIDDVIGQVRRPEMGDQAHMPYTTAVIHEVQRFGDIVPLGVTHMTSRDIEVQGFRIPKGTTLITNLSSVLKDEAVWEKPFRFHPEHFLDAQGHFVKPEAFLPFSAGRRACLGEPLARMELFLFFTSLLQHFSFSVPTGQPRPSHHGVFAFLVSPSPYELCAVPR

CC/C(=C(\c1ccccc1)c1ccc(OCCN(C)C)cc1)c1ccccc1 [Tamoxifen]
Hepatocyte Viability, MTT Assay Upfront (Mean) (human hepatocytes; 50 µM): 4 | Hepatocyte Viability, Concurrent MTT Assay (Mean) (human hepatocytes; Lot 336, 50 µM): 2 | Hepatocyte Viability, Concurrent MTT Assay (Mean) (human hepatocytes; Lot 348B, 50 µM): 1 | Hepatocyte Viability, Concurrent MTT Assay (Mean) (human hepatocytes; Lot 399, 50 µM): 7 | Cell count, MEC (HepG2 cells): 0.360 µM | Cell count, Trend (↑↓) (HepG2 cells): ↑ | DNA structure, MEC (HepG2 cells): 2.57 µM | DNA structure, Trend (↑↓) (HepG2 cells): ↑ | Nuclear size, MEC (HepG2 cells): 0.672 µM | Nuclear size, Trend (↑↓) (HepG2 cells): ↓ | Phospholipidosis, MEC (HepG2 cells): 0.447 µM | Steatosis, Trend (↑↓) (HepG2 cells): ↑ | Steatosis, MEC (HepG2 cells): 4.38 µM | AC50 [1, 7]: 16.9 µM | AC50 ([1]; read-out: Cell count, AC50): 0.442 µM | AC50 ([1]; read-out: DNA structure, AC50): 6.3 µM | AC50 ([1]; read-out: Nuclear size, AC50): 3.05 µM | AC50 [1, 8]: 0.764 µM

CN[C@H]1CC[C@@H](c2ccc(Cl)c(Cl)c2)c2ccccc21 [Sertraline]
Cell count, MEC (HepG2 cells): 1.61 µM | Cell count, Trend (↑↓) (HepG2 cells): ↓ | DNA structure, MEC (HepG2 cells): 0.876 µM | DNA structure, Trend (↑↓) (HepG2 cells): ↑ | Phospholipidosis, MEC (HepG2 cells): <0.0977 µM | Phospholipidosis, Trend (↑↓) (HepG2 cells): ↑ | Steatosis, Trend (↑↓) (HepG2 cells): ↑ | Steatosis, MEC (HepG2 cells): 0.822 (NS) μM | AC50 [1, 7]: > 3.13 µM | AC50 ([1]; read-out: Cell count, AC50): 2.48 µM | AC50 ([1]; read-out: DNA structure, AC50): 6.23 µM | AC50 ([1]; read-out: Nuclear size, AC50): > 3.13 µM | AC50 [1, 8]: 0.351 µM

COc1ccc2[nH]c([S+]([O-])Cc3ncc(C)c(OC)c3C)nc2c1 (stereo not drawn) [Omeprazole, reference compound]
fold induction at 48 h, 50 µM (CYP1A2 mRNA; Lot 336, 50 µM): 115 | fold induction at 48 h, 50 µM (CYP1A2 mRNA; Lot 348B, 50 µM): 361 | fold induction at 48 h, 50 µM (CYP1A2 mRNA; Lot 399, 50 µM): 232 | CYP1A2 activity, Fold of Vehicle Control (CYP1A2 [2]; Lot 336, 50 µM): 17 fold | CYP1A2 activity, Fold of Vehicle Control (CYP1A2 [2]; Lot 348B, 50 µM): 44 fold | CYP1A2 activity, Fold of Vehicle Control (CYP1A2 [2]; Lot 399, 50 µM): 23 fold | Phenacetin-O- deethylation (CYP1A2 [2]; Lot 399, 50 µM): 186 pmol/min/106 cells

CCc1cc(Cl)c(OC)c(N2CCN(C[C@H](O)CCNC(=O)c3cc4ccccc4[nH]3)CC2)c1 [(R)-VK4-116]
Mean % inhibition on hKir2.1 (End) (Kir2.1; 0.01 µM): 8.24% | Mean % inhibition on hKir2.1 (End) (Kir2.1; 0.1 µM): 12.22% | Mean % inhibition on hKir2.1 (End) (Kir2.1; 1 µM): 16.36% | Mean % inhibition on hKir2.1 (End) (Kir2.1; 10 µM): 18.23% | Mean % inhibition on hKir2.1 (End) (Kir2.1; 100 µM): 97.19% | Mean % inhibition on hKir2.1 (Peak) (Kir2.1; 0.01 µM): 9.54% | Mean % inhibition on hKir2.1 (Peak) (Kir2.1; 0.1 µM): 14.42% | Mean % inhibition on hKir2.1 (Peak) (Kir2.1; 1 µM): 19.01% | Mean % inhibition on hKir2.1 (Peak) (Kir2.1; 10 µM): 21.58% | Mean % inhibition on hKir2.1 (Peak) (Kir2.1; 100 µM): 52.64%

Nc1ccc(S(=O)(=O)Nc2ccnn2-c2ccccc2)cc1 [Sulfaphenazole]
activity at 20 min, 3 µM (CYP2D6): 94.8 ± 7.2% | activity at 20 min, 3 µM (CYP3A4; CYP activity (% of Control) 3A4 (Midazolam)): 98.7 ± 5.2% | activity at 20 min, 3 µM (CYP3A4; CYP activity (% of Control) 3A4 (Testosterone)): 95.9 ± 4.3% | activity at 20 min, 3 µM (CYP2B6 [3]): 100 ± 5.8% | activity at 20 min, 3 µM (CYP2C8): 97.6 ± 19.2% | activity at 20 min, 3 µM (CYP1A2 [4]): 98.1 ± 10.8% | activity at 20 min, 3 µM (CYP2C9; microsomes): 23.6 ± 3.3% | activity at 20 min, 3 µM (CYP2C19): 102 ± 6.5%

CCC1(c2ccccc2)C(=O)NC(=O)NC1=O [Phenobarbital]
Bupropion Hydroxylation (CYP2B6 [5]; hepatocyte Lot 336, 1000 µM): 3.6 pmol/min/106 cells | Fold of Vehicle Control (CYP2B6 activity, bupropion hydroxylation) (CYP2B6 [5]; hepatocyte Lot 336, 1000 µM): 4.0 fold | Fold of Vehicle Control (CYP2B6 activity, bupropion hydroxylation) (CYP2B6 [5]; hepatocyte Lot 348B, 1000 µM): 8.6 fold | Fold of Vehicle Control (CYP2B6 activity, bupropion hydroxylation) (CYP2B6 [5]; hepatocyte Lot 399, 1000 µM): 19 fold | fold induction at 48 h, 1000 µM (CYP2B6 mRNA; hepatocyte Lot 336, 1000 µM): 11 | fold induction at 48 h, 1000 µM (CYP2B6 mRNA; hepatocyte Lot 348B, 1000 µM): 12 | fold induction at 48 h, 1000 µM (CYP2B6 [6]): 11

[Ba+2].[Cl-].[Cl-] [Barium Chloride]
Mean % inhibition on hKir2.1 (End) (Kir2.1; 1 µM): 11.87% | Mean % inhibition on hKir2.1 (End) (Kir2.1; 3 µM): 30.43% | Mean % inhibition on hKir2.1 (End) (Kir2.1; 10 µM): 55.57% | Mean % inhibition on hKir2.1 (End) (Kir2.1; 30 µM): 85.21% | Mean % inhibition on hKir2.1 (End) (Kir2.1; 100 µM): 89.33% | Mean % inhibition on hKir2.1 (Peak) (Kir2.1; 1 µM): 6.70% | Mean % inhibition on hKir2.1 (Peak) (Kir2.1; 3 µM): 11.92% | Mean % inhibition on hKir2.1 (Peak) (Kir2.1; 10 µM): 17.51% | Mean % inhibition on hKir2.1 (Peak) (Kir2.1; 30 µM): 27.21% | Mean % inhibition on hKir2.1 (Peak) (Kir2.1; 100 µM): 45.99%

CC(=O)N1CCN(c2ccc(OCC3COC(Cn4ccnc4)(c4ccc(Cl)cc4Cl)O3)cc2)CC1 (stereo not drawn) [Ketoconazole]
activity at 20 min, 5 µM (CYP2B6 [3]): 49.1 ± 0.7% | activity at 20 min, 5 µM (CYP2C8): 45.7 ± 4.7% | activity at 20 min, 5 µM (CYP1A2 [4]): 70.7 ± 2.2% | activity at 20 min, 5 µM (CYP2C9; human liver microsomes, probe diclofenac): 65.8 ± 1.9% | activity at 20 min, 5 µM (CYP2C19): 82.9 ± 2.8%
